Results as given in patent US20030194378A1, “Novel aerosol formulation containing a polar fluorinated molecule” (priority 2000, published 2003).
Structures can show the parent of a compound that is named as a salt. Where two headings read alike, the source gives them in different places.

Assays:
[1] = Miscibility or solubility of fluorinated molecules in propellants; conditions: for Concentration (C, in brackets) at which the miscibility or solubility test was done, HFA-134a / Concentration (C, in brackets) at which the miscibility or solubility test was done, HFA-227: solutions below this are monophasic, not an upper limit; for Miscibility or solubility, HFA-134a: in propellant HFA-134a, at the concentration in brackets; for Miscibility or solubility, HFA-227: in propellant HFA-227, at the concentration in brackets
[2] = Solubility of drug compounds in 4HPFOH (optical, UV-Vis); format: physicochemical
Protocol: Although most drug compounds are insoluble in the fluorinated systems, in some instances it is possible to solubilise the drug.
Drug suspensions were prepared in sealed glass vials by weight. The suspensions were then allowed to rest over a couple of day to reach equilibrium. They were firstly assessed optically, and in the case of a possible solubility by UV-vis spectroscopy. The solutions were then filtered with 0.2 μm PTFE filters and studied by UV-Vis spectroscopy between 280 nm and 350 nm. A range of suspensions were prepared, to be able to reach saturation levels. Calibration curves were then drawn by plotting the absorbance as a function of concentration. The inflexion point at which the slope of the calibration plot changed was taken as the solubility limit. The experiment was carried out at least 3 times for each drug.

[3] = Solubility of selected excipients in 4HPFOH; conditions: for Concentration % w/w (at which solubility in 4HPFOH was assessed): excipient in 4HPFOH; for Solubility or miscibility in 4HPFOH: excipient in 4HPFOH at the concentration of the same line, sonicated, heated, cooled
Protocol: The second test carried out was to evaluate the solubility (or miscibility in the case of liquid samples) of some excipients in 4HPFOH.
The excipients were weighed in glass vials with a screw-on plastic cap. 4HPFOH was added at the required concentration, and the vial sealed with Teflon tape and the screw-on cap. The sample was sonicated and heated to quicken the solubilisation of the excipient. The vial was then allowed to cool down.

Structure (SMILES)	Concentration (C, in brackets) at which the miscibility or solubility test was done, HFA-134a [1]	Concentration (C, in brackets) at which the miscibility or solubility test was done, HFA-227 [1]	Miscibility or solubility, HFA-134a [1]	Miscibility or solubility, HFA-227 [1]	further results
OCCC(F)(F)C(F)(F)C(F)(F)C(F)(F)C(F)(F)C(F)(F)F [1H,1H,2H,2H Perfluorooctan-1-ol]	(C <7.30% w/w)	< 5.17 % w/w	Yes	Yes	–
OCC(O)CC(F)(F)C(F)(F)C(F)(F)C(F)(F)C(F)(F)C(F)(F)F (centres unmarked) [1H,1H,2H,3H,3H Perfluoro-1,2-nonandiol]	(C <4.84% w/w)	< 3.71 % w/w	Yes	Yes	–
OCC(F)(F)C(F)(F)C(F)(F)C(F)(F)C(F)(F)C(F)(F)C(F)(F)C(F)(F)F [1H,1H, Perfluorononan-1-ol]	(C <4.55% w/w)	< 4.15 % w/w	Yes	Yes	–
FC(OC(F)(F)C(F)(OC(F)(F)C(F)(OC(F)(F)C(F)(OC(F)(F)C(F)(F)C(F)(F)F)C(F)(F)F)C(F)(F)F)C(F)(F)F)C(F)(F)F (centres unmarked) [2H Perfluoro-5,8,11-trimethyl-3,6,9,12-tetrafluoropropylether]	(C <43.49% w/w)	(C <35.36% w/w)	Yes	Yes	–
Cc1ccc(CCOCCNS(=O)(=O)CCCNCCc2ccc(O)c3nc(O)sc23)cc1 [3-[2-(4-hydroxy-2-oxo-3H-1,3-benzothiazol-7-yl)ethylamino]-N-[2-[2-(4-methylphenyl)ethoxy)ethyl]propansulphonamide]	–	–	–	–	Solubility in 4HPFOH [2]: less than 0.1 ppm(w/w); Solubility in 4HPFOH (in words) [2]: insoluble
CCCC1O[C@@H]2C[C@H]3[C@@H]4CCC5=CC(=O)C=C[C@]5(C)[C@H]4[C@@H](O)C[C@]3(C)[C@]2(C(=O)CO)O1 (some centres unmarked) [Budesonide]	–	–	–	–	Solubility in 4HPFOH (in words) [2]: soluble; Solubility limit in 4HPFOH [2]: 0.219-0.246 % w/w
C[C@H](CCC(=O)O)[C@H]1CC[C@H]2[C@@H]3CC[C@@H]4C[C@H](O)CC[C@]4(C)[C@H]3C[C@H](O)[C@]12C [Deoxycholic acid]	–	–	–	–	Concentration % w/w (at which solubility in 4HPFOH was assessed) [3]: 0.90 % w/w; Solubility or miscibility in 4HPFOH [3]: Yes
CCCCC(CC)COC(=O)CC(C(=O)OCC(CC)CCCC)S(=O)(=O)[O-].[Na+] (centres unmarked) [Dioctyl-sulfosuccinate sodium salt]	–	–	–	–	Concentration % w/w (at which solubility in 4HPFOH was assessed) [3]: 0.096 % w/w; Solubility or miscibility in 4HPFOH [3]: Yes
CCCCCCCCCCCC[N+](C)(C)C.[Br-] [Dodecyltrimethyl Ammonium Bromide]	–	–	–	–	Concentration % w/w (at which solubility in 4HPFOH was assessed) [3]: 1.00 % w/w; Solubility or miscibility in 4HPFOH [3]: Yes
CCOC(=O)C(F)(F)C(F)(F)C(F)(F)C(F)(F)C(F)(F)C(F)(F)C(F)(F)C(F)(F)C(F)(F)C(F)(F)C(F)(F)F [Ethyl Perfluoro n-Dodecanoate]	(C <9.24% w/w)	(C <41.15% w/w)	Yes	Yes	–
COc1ccc(CC(C)NCC(O)c2ccc(O)c(NC=O)c2)cc1 (centres unmarked) [Formoterol Fumarate Dihydrate]	–	–	–	–	Solubility in 4HPFOH (in words) ([2]; in 4HPFOH, equilibrated a couple of days): insoluble
COC(=O)C(F)(F)C(F)(F)C(F)(F)C(F)(F)C(F)(F)C(F)(F)C(F)(F)C(F)(F)C(F)(F)F [Methyl Perfluorodecanoate]	(C <42.63% w/w)	(C <39.40% w/w)	Yes	Yes	–
CCCCCCCCO[C@@H]1O[C@H](CO)[C@@H](O)[C@H](O)[C@H]1O [N Octyl beta D Glucopyranoside]	–	–	–	–	Concentration % w/w (at which solubility in 4HPFOH was assessed) [3]: 0.11 % w/w; Solubility or miscibility in 4HPFOH [3]: Yes
CCCCCCCCC[N+](C)(C)C.[Br-] [Nonyltrimethyl Ammonium Bromide]	–	–	–	–	Concentration % w/w (at which solubility in 4HPFOH was assessed) [3]: 0.96 % w/w; Solubility or miscibility in 4HPFOH [3]: Yes
O=C(OC(=O)C(F)(F)C(F)(F)C(F)(F)C(F)(F)C(F)(F)C(F)(F)F)C(F)(F)C(F)(F)C(F)(F)C(F)(F)C(F)(F)C(F)(F)F [Perfluoroheptanoic anhydride]	(C <9.89% w/w)	< 9.13 % w/w	Yes	Yes	–
CC(C)(C)NCC(O)c1cc(O)cc(O)c1 (centres unmarked) [Terbutaline Sulphate]	–	–	–	–	Solubility in 4HPFOH [2]: less than 0.1 ppm(w/w); Solubility in 4HPFOH (in words) [2]: insoluble

The next lines start with results.

Concentration (C, in brackets) at which the miscibility or solubility test was done, HFA-134a [1]	Concentration (C, in brackets) at which the miscibility or solubility test was done, HFA-227 [1]	Miscibility or solubility, HFA-134a [1]	Miscibility or solubility, HFA-227 [1]	Structure (SMILES)	further results
(C <4.93% w/w)	< 4.43 % w/w	Yes	Yes	CCOC(=O)C(F)(F)C(F)(F)C(F)(F)C(F)(F)C(F)(F)C(F)(F)C(F)(F)C(F)(F)C(F)(F)C(F)F [Ethyl 11H-Perfluoroundecanoate]	–
(C <10.37% w/w)	< 8.90 % w/w	Yes	Yes	COC(=O)C(F)(OC(F)(F)C(F)(OC(F)(F)C(F)(OC(F)(F)C(F)(OC(F)(F)C(F)(F)C(F)(F)F)C(F)(F)F)C(F)(F)F)C(F)(F)F)C(F)(F)F (centres unmarked) [Methyl perfluoro 2,5,9,11-Tetramethyl 3,6,9,12 Tetraoxapentadecanoate]	–
